The target of experiment [1] is T1, hFFA2 (Homo sapiens, UniProt O15552).
T1 sequence (O15552 1-330): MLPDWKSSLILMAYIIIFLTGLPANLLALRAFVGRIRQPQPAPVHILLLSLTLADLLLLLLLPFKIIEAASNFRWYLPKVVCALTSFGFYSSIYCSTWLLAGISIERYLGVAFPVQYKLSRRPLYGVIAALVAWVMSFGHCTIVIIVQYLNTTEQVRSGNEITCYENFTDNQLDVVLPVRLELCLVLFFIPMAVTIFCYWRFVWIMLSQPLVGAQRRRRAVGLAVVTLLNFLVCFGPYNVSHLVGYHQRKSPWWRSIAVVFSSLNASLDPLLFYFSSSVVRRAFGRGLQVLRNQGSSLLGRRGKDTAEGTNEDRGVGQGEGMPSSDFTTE
Nature of the experiment: beta-arrestin-2 BRET recruitment. The experiment is classed as cell-based. (In BRET a luciferase serves as donor, and the signal depends on an acceptor being close.)

A further experiment has as its target T2, bFFA3 (Bos taurus, UniProt A0ACM8QIV1).
T2 sequence (A0ACM8QIV1 1-326): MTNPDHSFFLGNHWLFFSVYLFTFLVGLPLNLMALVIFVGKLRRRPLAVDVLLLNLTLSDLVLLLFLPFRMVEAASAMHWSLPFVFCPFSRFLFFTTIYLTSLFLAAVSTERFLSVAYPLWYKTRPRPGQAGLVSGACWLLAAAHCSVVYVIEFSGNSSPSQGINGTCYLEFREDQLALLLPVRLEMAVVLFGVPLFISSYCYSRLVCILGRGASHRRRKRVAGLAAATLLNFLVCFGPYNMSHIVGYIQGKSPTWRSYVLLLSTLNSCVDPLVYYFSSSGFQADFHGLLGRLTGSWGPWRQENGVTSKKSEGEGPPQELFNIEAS
The experiment in a line: […]GTPγS incorporation, membranes. The experiment is classed as biochemical.

A further experiment has as its target T3, hFFA3 (Homo sapiens, UniProt O14843).
T3 sequence (O14843 1-346): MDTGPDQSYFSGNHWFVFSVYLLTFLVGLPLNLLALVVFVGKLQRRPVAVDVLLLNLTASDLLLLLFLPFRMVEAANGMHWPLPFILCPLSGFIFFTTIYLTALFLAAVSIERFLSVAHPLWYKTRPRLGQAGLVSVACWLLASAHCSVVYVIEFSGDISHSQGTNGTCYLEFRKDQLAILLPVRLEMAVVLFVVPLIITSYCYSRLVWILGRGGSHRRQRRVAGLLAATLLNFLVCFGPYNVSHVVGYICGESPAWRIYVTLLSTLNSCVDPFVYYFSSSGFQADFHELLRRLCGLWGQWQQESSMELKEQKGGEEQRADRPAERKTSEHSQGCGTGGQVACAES
The experiment in a line: […]GTPγS incorporation, membranes. It is filed as biochemical.

The target of a further experiment is T4, bFFA2 (Bos taurus, UniProt A0ACM8QIU6).
T4 sequence (A0ACM8QIU6 1-329): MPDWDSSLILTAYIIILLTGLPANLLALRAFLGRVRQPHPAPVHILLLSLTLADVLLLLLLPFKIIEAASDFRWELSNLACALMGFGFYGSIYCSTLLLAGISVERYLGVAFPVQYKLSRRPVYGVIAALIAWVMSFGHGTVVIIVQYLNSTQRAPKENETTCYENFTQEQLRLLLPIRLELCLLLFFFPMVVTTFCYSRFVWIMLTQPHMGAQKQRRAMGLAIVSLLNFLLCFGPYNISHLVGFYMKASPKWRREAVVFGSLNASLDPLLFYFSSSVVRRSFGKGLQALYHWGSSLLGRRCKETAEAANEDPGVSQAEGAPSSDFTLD
Nature of the experiment: beta-arrestin-2 BRET recruitment. The experiment is classed as cell-based.

The target of experiment [2] is T5, hFFA2 (Homo sapiens, UniProt O15552, C141G).
T5 sequence (O15552 1-330 C141G): T1 sequence (O15552 1-330) with C141G
The experiment in a line: beta-arrestin-2 BRET recruitment. The experiment is classed as cell-based.

For experiment [3], the target named is T6, hFFA2 (Homo sapiens, UniProt O15552, C141G/H242Q).
T6 sequence (O15552 1-330 C141G/H242Q): T1 sequence (O15552 1-330) with C141G, H242Q
Nature of the experiment: […]GTPγS incorporation, membranes. The experiment is classed as biochemical.

Positions count from the first letter of the chain named. Where only a bound is given, the exact number is not on record here.

Consider `O=CO` [C1, formic acid], for which the EC50 at hFFA2 [1] is 2510 µM; at bFFA3, > 10000 µM; on hFFA3 it was > 10000 µM; on bFFA2 it was > 10000 µM.

In the case of `CC(=O)O` [C2, acetic acid], the 50% effective concentration (EC50) on hFFA2 [1] is 1000 µM; on bFFA3 it was 4370 µM; at hFFA3, 7590 µM; at bFFA2, 2040 µM.

As for `CCC(=O)O` [C3, propionic acid], the EC50 at bFFA3 was 155 µM; on hFFA3, 200 µM; at bFFA2 it was 347 ± 7.01 µM.

Take `CCCC(=O)O` [C4, butyric acid]: the EC50 at hFFA2 [1] was 1480 µM; on bFFA3 it was 263 µM; on hFFA3, 251 µM; on bFFA2, 69.2 µM.

For the compound `CCCCC(=O)O` [C5, valeric acid], the concentration giving a half-maximal response (EC50) at hFFA2 [1] is 7080 µM; at bFFA3 it was 123 µM; on hFFA3 it was 36.3 µM; on bFFA2 it was 42.7 µM.

On to `CCCCCC(=O)O` [C6, caproic acid], for which the EC50 on hFFA2 [2] is 24 µM; on hFFA2 [1] it was > 10000 µM; at bFFA3, 126 µM; at hFFA3 it was 204 µM; at bFFA2, 20.9 µM.

In the case of `CCCCCCC(=O)O` [C7, heptanoic acid], the EC50 at hFFA2 [2] was 105 µM; on hFFA2 [1], > 10000 µM; at bFFA3 it was 158 µM; on hFFA3, 69.2 µM; on bFFA2, 155 µM.

Turning to `CCCCCCCC(=O)O` [C8, caprylic acid], the EC50 on hFFA2 [2] was 1070 µM; on hFFA2 [1] it was > 10000 µM; on bFFA3 it was > 10000 µM; on hFFA3, > 10000 µM; at bFFA2 it was 617 µM.

`CCCCCCCCC(=O)O` [C9, pelargonic acid]: the EC50 on hFFA2 [1] was > 10000 µM; on bFFA3, > 10000 µM; on hFFA3, > 10000 µM; on bFFA2, 3390 µM.

Take `CC/C=C/C(=O)O` [compound 22, trans-2-pentenoic acid]: the EC50 was 33.1 µM at hFFA2 [2] and 5.25 µM at bFFA2.

For the compound `CCC/C=C/C(=O)O` [compound 23, trans-2-hexenoic acid], the EC50 on hFFA2 [2] is 3.24 µM; on hFFA2 [1], > 10000 µM; at bFFA2, 3.98 µM.

Turning to `C=CC=CC(=O)O` [compound 24, 2,4-pentadienoic acid], the results for the EC50 on hFFA2 [2] and at bFFA2 were 22.9 µM and 10 µM, respectively.

In the case of `C/C=C/C=C/C(=O)O` [compound 25, 2,4-hexadienoic acid], the EC50 on hFFA2 [3] is 3.47 µM; on hFFA2 [2] it was 4.57 µM; on hFFA2 [1], > 10000 µM; on bFFA2 it was 4.27 µM.

Take `CC(=CC(=O)O)C(F)(F)F` [compound 26, 4,4,4-trifluoro-3-methyl-2-butenoic acid]: the results for the EC50 at hFFA2 [2], on hFFA2 [1] and at bFFA2 were 257 µM, > 10000 µM and 12.9 µM, respectively.

As for `O=C(O)C1=CCCC1` [compound 27, 1-cyclopentenecarboxylic acid], the values for the EC50 on hFFA2 [2], on hFFA2 [1] and at bFFA2 were 83.2 µM, > 10000 µM and 11 µM, respectively.

Regarding `O=C(O)/C=C/c1ccccc1` [compound 28, trans-cinnamic acid], the EC50 at hFFA2 [2] was 389 µM; at hFFA2 [1], > 10000 µM; on bFFA2, 174 µM.

In the case of `O=C(O)C1=CCCCC1` [compound 29, 1-cyclohexene-1-carboxylic acid], the EC50 was 158 µM at hFFA2 [2], > 10000 µM on hFFA2 [1] and 60.3 µM on bFFA2.

The term EC50 denotes the concentration needed to bring the measured effect to its halfway point. A lower EC50 goes with greater potency.

These data come from PMC3509056 (The FASEB Journal, 2012).
